Reference: PMC7321218, “Synthetic (E)-3-Phenyl-5-(phenylamino)-2-styryl-1,3,4-thiadiazol-3-ium Chloride Derivatives as Promising Chemotherapy Agents on Cell Lines Infected with HTLV-1” (Molecules, 2020)
“Also recorded” adds a separate entry of the source.

Assays:
[1] = system: MT2 cells (HTLV-1-infected cell line); assay: MTT cell viability assay, MT2 cells; type: cell-based; conditions: Homo sapiens, 72 h incubation
Experimental: (§1) The 1 × 10^5 cells/mL were incubated with or without compounds 5a, 5b, 5c, 5d or DMSO (Sigma-Aldrich/Merck, St. Louis, MO, USA) at 37 °C in humidified atmosphere with a 5% CO2. After 72 h, the cellular viability was assessed using 5 mg/mL of 3-(4,5-dimethylthiazol-2-yl)-2,5-diphenyltetrazolium bromide (MTT, Sigma-Aldrich/Merck). Cells were incubated for 3 h, centrifuged, and formazan crystal was dissolved with DMSO. Plates were read on a Paradigma® spectrofluorometer (Molecular Devices, San Jose, CA, USA) at a 490 nm wavelength. Cell death was also evaluated using Propidium Iodide (Biolegend) exclusion after a 24 h culture under the same conditions described above. The fluorescence was examined by FACSCalibus flow cytometry (BD) and 10,000 events were acquired for the experimental data. Analysis was accomplished using Summit V4.0 or FlowJo software (Becton, Dickingson and Company, Santa Barbara, CA, USA).
(§2) Statistical analysis was performed by one-way analysis of variance (ANOVA) and means were compared using a Tukey post-test. The IC50 values were obtained using nonlinear regression. Data were analyzed using GraphPad Prism-5 software (GraphPad software, San Diego, CA, USA), and p ≤ 0.05 was considered statistically significant.

[2] = target: T1, human serum albumin (HSA) (Homo sapiens, UniProt P02768); assay: Circular dichroism of HSA (secondary structure); type: binding; conditions: CD, 310 K, 1.32 × 10^−5 M compound; for α-helix % of HSA at 222 nm: HSA alone 80.1%; for α-helix % of HSA at 208 nm: HSA alone 86.7%
T1 construct: three analogous domains (I, II, and III) having amino acid residues of 1–195, 196–383, and 384–585
Experimental: The CD spectra were recorded in the 200–250 nm range at 310 K for free serum albumin (1.00 × 10^−6 M) and for HSA with the higher concentration of each mesoionic used in the steady-state fluorescence studies (1.32 × 10^−5 M). Each spectrum was taken on the average of three scans. The obtained data were further converted into mean residue ellipticity (MRE) according to Equation (6):(6) MRE=θ/(10.n.l.Cp) where θ is the observed ellipticity (mdeg); n is the number of amino acid residues (585 to HSA), l is the length of the optical cuvette (1.0 cm), and Cp is the molar concentration of HSA (1.00 × 10^−6 M). The 5a–d induced helical content perturbation at 208 and 222 nm were calculated using Equation (7):(7) (A) α−helix%(−MRE208−4000)/(33000−4000)×100(B) α−helix%(−MRE222−2340)/(30300)×100 where MRE208 and MRE222 are the significant molar residual ellipticities (deg.cm^2/dmol) at 208 nm and 222 nm, respectively.

[3] = target: T1, human serum albumin (HSA); assay: Time-resolved fluorescence decay of HSA; type: binding; conditions: HSA 1.00 × 10^−5 M with 1.32 × 10^−5 M compound, ca 298 K
Experimental: The time-resolved fluorescence decay of a 3.0 mL solution of HSA (1.00 × 10^−5 M, in phosphate buffer solution-PBS) was measured in the absence and presence of the maximum concentration of each mesoionic used in the steady-state fluorescence studies (1.32 × 10^−5 M) at room temperature (ca 298 K).

[4] = system: C91/PL cells (HTLV-1-infected); assay: MTT cell viability assay, C91/PL cells; type: cell-based; conditions: 72 h incubation
Experimental: as §1, §2

[5] = target: T1, human serum albumin (HSA); assay: Zeta potential of HSA (surface perturbation); type: binding; conditions: for ζ (zeta potential of HSA): HSA with 1.32 × 10^−5 M compound, HSA alone −9.15 ± 1.79; for Conductance: ZP measurement, HSA with compound
Experimental: All zeta potential (ZP) measurements were performed with 10 runs at 298 K and results were reported in terms of ZP ± SD. The ZP was measured for the HSA solution (1.0 × 10^−5 M in PBS solution) without and in the presence of the mesoionic compounds at the maximum concentration used in the steady-state fluorescence experiments (1.32 × 10^−5 M) at room temperature (ca. 298 K).

[6] = target: T1, human serum albumin (HSA); assay: Steady-state fluorescence quenching of HSA; type: binding; conditions: for Kd: Ka (modified Stern–Volmer binding constant); for ΔS°: van't Hoff, 296–310 K
Experimental: The steady-state fluorescence spectra were measured in the 290–450 nm range, at 296, 303, and 310 K, with the excitation wavelength at λ = 295 nm. To a 3.0 mL solution containing an appropriate concentration of HSA (1.00 × 10^−5 M), successive aliquots from a stock solution of each mesoionic under study (1.00 × 10^−3 M in DMSO) were added, with final concentrations of 0.17, 0.33, 0.50, 0.66, 0.83, 0.99, 1.15, and 1.32 × 10^−5 M. The addition was done manually by using a micro syringe. The inner filter correction for the observed steady-state fluorescence of HSA:mesoionic compounds was done in order to compensate for the absorption value of 5a–d at the excitation and emission wavelengths (295 and 340 nm, respectively) when applying Equation (1):(1) Fcor=Fobs10^[Aexc+Aem/2] where Fcor and Fobs are the corrected and observed steady-state fluorescence intensity values, respectively, while Aex and Aem represent absorbance values for each ligand at the excitation and emission wavelengths (λ = 295 and 340 nm, respectively).
The binding properties of each ligand toward HSA—Stern–Volmer quenching constant (KSV), bimolecular quenching rate constant (kq), modified Stern–Volmer binding constant (Ka), enthalpy change (ΔH°), entropy change (ΔS°), and Gibbs’ free energy change (ΔG°)—were calculated from the steady-state fluorescence quenching data according to Equations (2)–(5):(2) F0/F=1+kqτ0[Q]=1+KSV[Q] (3) F0/F0−F=1/f[Q]Ka+1/f (4) lnKa=−ΔH^0/RT+ΔS^0/R (5) ΔG^0=ΔH^0−TΔS^0 where F0 and F are the steady-state fluorescence intensities of HSA in the absence and presence of mesoionics, respectively. [Q] and τ0 are the ligand concentration and fluorescence lifetime, respectively, of the fluorophore in the absence of quencher (5.54 × 10^−9 s—experimental data, see Section 2.3.1). T, ƒ, and R are the temperature (296, 303, and 310 K), fraction of the initial fluorescence intensity that corresponds to fluorophore that is accessible to the quencher (f ≈ 1.0), and gas constant (8.3145 J/mol.K), respectively.

[7] = system: Jurkat cells; assay: MTT cell viability assay, Jurkat cells; type: cell-based; conditions: Homo sapiens, 72 h incubation
Experimental: as §1, §2

[8] = system: C91/PL cells; assay: Necrosis by propidium iodide labeling (flow cytometry), C91/PL cells; type: cell-based; conditions: 25 µM, 24 h, PI labeling
Experimental: as §1

[9] = system: MT2 cells; assay: Necrosis by propidium iodide labeling (flow cytometry), MT2 cells; type: cell-based; conditions: 25 µM, 24 h, PI labeling
Experimental: as §1

[10] = system: Jurkat cells; assay: Necrosis by propidium iodide labeling (flow cytometry), Jurkat cells; type: cell-based, human; conditions: 25 µM, 24 h, PI labeling
Experimental: as §1

[11] = system: salmon DNA; assay: DNA interaction assay (fluorescence emission); type: binding; conditions: 25 µM compound, DNA 2, 10 and 100 ng/mL
Experimental: Fluorescence emission spectroscopic titration experiments of DNA were conducted in the absence and presence of a constant concentration of the mesoionic compounds 5a–d. […] After that, the fluorescence emission was recorded after 1 h of DNA incubation with or without compounds 5a–d (25 µM) or DMSO, over a wavelength range of 300 to 600 nm in a Tris-acetate-EDTA buffer (Promega) at room temperature. The slit widths for excitation and emission were set to 5.0 nm. The fluorescence was examined using a F4500 fluorometer (Hitachi, New Jersey, NJ, USA).

T1 sequence (P02768 25-609): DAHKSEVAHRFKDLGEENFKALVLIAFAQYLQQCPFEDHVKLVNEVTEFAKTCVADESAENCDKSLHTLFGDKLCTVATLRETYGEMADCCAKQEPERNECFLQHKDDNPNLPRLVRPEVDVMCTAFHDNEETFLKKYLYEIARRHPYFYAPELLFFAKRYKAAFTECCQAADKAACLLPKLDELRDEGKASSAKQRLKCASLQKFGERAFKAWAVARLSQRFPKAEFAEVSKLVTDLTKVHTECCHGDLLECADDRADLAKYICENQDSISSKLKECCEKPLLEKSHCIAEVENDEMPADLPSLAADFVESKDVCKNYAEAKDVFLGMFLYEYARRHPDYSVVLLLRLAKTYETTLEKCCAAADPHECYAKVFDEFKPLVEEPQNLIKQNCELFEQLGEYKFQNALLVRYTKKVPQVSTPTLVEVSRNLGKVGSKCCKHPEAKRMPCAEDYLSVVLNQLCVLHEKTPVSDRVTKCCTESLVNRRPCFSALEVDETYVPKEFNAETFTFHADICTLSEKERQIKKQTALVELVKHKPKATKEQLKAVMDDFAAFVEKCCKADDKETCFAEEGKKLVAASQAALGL

Structure (SMILES)	IC50 [1] [µM]	α-helix % of HSA at 222 nm [2] [%]	α-helix % of HSA at 208 nm [2] [%]	Relative % of τ1 [3] [%]	Relative % of τ2 [3] [%]	τ1 (HSA fluorescence lifetime) [3] [ns]	τ2 (HSA fluorescence lifetime) [3] [ns]	IC50 [4] [µM]	ζ (zeta potential of HSA) [5] [mV]	Conductance [5]	KSV (Stern–Volmer quenching constant) ([6]; 296 K)	kq (bimolecular quenching rate constant) ([6]; 296 K) [M⁻¹ s⁻¹]	ΔG° ([6]; 296 K) [kcal/mol]	KSV (Stern–Volmer quenching constant) ([6]; 303 K)	kq (bimolecular quenching rate constant) ([6]; 303 K) [M⁻¹ s⁻¹]	ΔG° ([6]; 303 K) [kcal/mol]	KSV (Stern–Volmer quenching constant) ([6]; 310 K)	kq (bimolecular quenching rate constant) ([6]; 310 K) [M⁻¹ s⁻¹]	ΔG° ([6]; 310 K) [kcal/mol]	Kd ([6]; 296 K) [µM]	other results
Cc1ccc(Nc2n[n+](-c3ccccc3)c(/C=C/c3ccccc3)s2)cc1.[Cl-] [5a, (E)-3-Phenyl-5-(4′-methylphenylamino)-2-styryl-1,3,4-thiadiazol-3-ium chloride]	1.51	78.5	84.0	26.4	73.6	1.61 ± 0.13	5.38 ± 0.13	2.82	−8.62 ± 1.40	29,615 µs	1.19 ± 0.03 × 10^5 M^−1	2.15e+13	-6.62	1.20 ± 0.03 × 10^5 M^−1	2.16e+13	-6.76	1.21 ± 0.03 × 10^5 M^−1	2.18e+13	-6.91	13	Kd ([6]; 303 K): 13.3 µM; Kd ([6]; 310 K): 13.7 µM; ΔS° [6]: 8.46 ± 0.05 × 10^−2 kJ.mol^−1K^−1; IC50 [7]: 2.15 µM
COc1ccc(Nc2n[n+](-c3ccccc3)c(/C=C/c3ccccc3)s2)cc1.[Cl-] [5b, (E)-3-Phenyl-5-(4′-methoxyphenylamino)-2-styryl-1,3,4-thiadiazol-3-ium chloride]	5.09	77.3	82.4	23.9	76.1	1.66 ± 0.12	5.25 ± 0.11	4.5	−8.55 ± 1.46	29,642 µs	1.10 ± 0.02 × 10^5 M^−1	1.99e+13	-6.69	1.14 ± 0.03 × 10^5 M^−1	2.06e+13	-6.84	1.15 ± 0.03 × 10^5 M^−1	2.07e+13	-6.98	11.7	necrotic cells [8]: 33.75 ± 1.65%; necrotic cells [9]: 35.34 ± 7.80%; necrotic cells [10]: 75.37 ± 3.63%; Kd ([6]; 303 K): 11.8 µM; Kd ([6]; 310 K): 12.1 µM; ΔS° [6]: 8.81 ± 0.06 × 10^−2 kJ.mol^−1K^−1; interaction with DNA strands [11]: can interact with the DNA strands; also recorded: could interact with DNA strands; IC50 [7]: 1.74 µM
